Reference: patent US9580463B2 (BRISTOL-MYERS SQUIBB COMPANY, priority 2013, dated 2017)

test system: HCV genotype 1b (Con1) replicon in HUH-7 cells; experiment: HCV replicon luciferase reporter assay, genotype 1b; format: cell-based; settings: Hepatitis C virus, 72 h, genotype 1b replicon, 3 days incubation, read-out: LE_1b (EC50, range)
From the text: An HCV replicon whole cell system was established as described by Lohmann V, Korner F, Koch J, Herian U, Theilmann L, Bartenschlager R., Science 285(5424):110-3 (1999) and modified to introduce a luciferase reporter, as first described by Krieger et al (Krieger N, Lohmann V, and Bartenschlager R, J. Virol. 75(10):4614-4624 (2001)). CDNA encoding a humanized form of the Renilla luciferase gene and a linker sequence fused directly to the 3′-end of the luciferase gene were introduced into the replicon construct using an Asc1 restriction site located in core, directly upstream of the neomycin marker gene. The adaptive mutation at position 1179 (serine to isoleucine) was also introduced (Blight K J, Kolykhalov, A A, Rice, C M, Science 290(5498):1972-1974). A stable cell line constitutively expressing this HCV replicon construct was generated by first linearizing plasmid DNAs with ScaI. RNA transcripts were synthesized in vitro using the T7 MegaScript transcription kit (Ambion, Austin, Tex.) according to manufacturer's directions. In vitro transcripts of the cDNA were transfected into the human hepatoma cell line, HUH-7. […] Resulting cell lines were characterized for positive and negative strand RNA production and protein production over time. […]
HCV replicon luciferase assays were developed to monitor the inhibitory effects of compounds described in the disclosure on HCV genotypes 1a and 1b viral replication. HUH-7 cells, constitutively expressing the HCV replicon, were grown in Dulbecco's Modified Eagle Media (DMEM) (Gibco-BRL) containing 10% Fetal calf serum (FCS) (Sigma) and 1 mg/mL G418 (Gibco-BRL). Compounds were serially diluted 3 folds in DMSO for a twenty-point titration and subsequently transferred to sterile 384-well tissue-culture treated plates (Corning cat #3571). The plates were then seeded with 50 μL of cells at a density of 3.0×10^3 cells/well in DMEM containing 4% FCS (final DMSO concentration at 0.5%). After 3 days incubation at 37° C., cells were analyzed for Renilla Luciferase activity using the EnduRen as substrate (Promega cat #E6485). The EnduRen substrate was diluted in DMEM and then added to the plates to a final concentration of 7.5 μM. The plates were incubated for 2 hrs at 37° C. and then read immediately for 30 seconds with Viewlux Imager (PerkinElmer) using a luminescence program. To assess cytotoxicity of compounds, CC50 values were generated by multiplexing the EnduRen-containing plates with Cell Titer-Blue (Promega, cat # G8082). Cell-Titer Blue (3 μL) was added to each well and incubated for 8 hrs at 37° C. The fluorescence signal from each well was read, with an excitation wavelength at 525/10 nm and an emission wavelength of 598/10 nm, using the Viewlux Imager.
The EC50 values for compounds were calculated by using a four-parameter logistic equation: y=A+((B−A)/(1+((C/x)^D))), where A and B denotes minimal and maximal % inhibition, respectively, C is the EC50, D is the hill slope and x represents compound concentration.

| SMILES | EC50 [nM] |
| --- | --- |
| COC[C@@H]1C[C@@H](C)CC/C=C\[C@@H]2C[C@@]2(C(=O)NS(=O)(=O)C2(C)CC2)NC(=O)[C@@H]2C[C@@H](Oc3nc4cc(OC(C)C)ccc4nc3C(F)(F)F)CN2C(=O)[C@H]1NC(=O)OC(C)(C)C(C)(F)F [Compound 1055, 3,3-difluoro-2-methylbutan-2-yl ((2R,6S,7R,9S,13aS,14aR,16aS,Z)-2-((7-isopropoxy-3-(trifluoromethyl)quinoxalin-2-yl)oxy)-7-(methoxymethyl)-9-methyl-14a-(((1-methylcyclopropyl)sulfonyl)carbamoyl)-5,16-dioxo-1,2,3,5,6,7,8,9,10,11,13a,14,14a,15,16,16a-hexadecahydrocyclopropa[e]pyrrolo[1,2-a][1,4]diazacyclopentadecin-6-yl)carbamate] | 1.01 to 5 |
| COC[C@@H]1C[C@H](C)CC/C=C\[C@@H]2C[C@@]2(C(=O)NS(=O)(=O)C2(C)CC2)NC(=O)[C@@H]2C[C@@H](Oc3nc4cc(OC(C)C)ccc4nc3C(F)(F)F)CN2C(=O)[C@H]1NC(=O)OC(C)(C)C(C)(F)F [Compound 1056, 3,3-difluoro-2-methylbutan-2-yl ((2R,6S,7R,9R,13aS,14aR,16aS,Z)-2-((7-isopropoxy-3-(trifluoromethyl)quinoxalin-2-yl)oxy)-7-(methoxymethyl)-9-methyl-14a-(((1-methylcyclopropyl)sulfonyl)carbamoyl)-5,16-dioxo-1,2,3,5,6,7,8,9,10,11,13a,14,14a,15,16,16a-hexadecahydrocyclopropa[e]pyrrolo[1,2-a][1,4]diazacyclopentadecin-6-yl)carbamate] | 0.1 to 0.5 |
| COC[C@@H]1C[C@@H](C)CC/C=C\[C@@H]2C[C@@]2(C(=O)NS(=O)(=O)C2(C)CC2)NC(=O)[C@@H]2C[C@@H](Oc3nc4cc(OC(C)C)ccc4nc3C(F)(F)F)CN2C(=O)[C@H]1NC(=O)OC(C)(C)C(F)(F)F [Compound 1057, 1,1,1-trifluoro-2-methylpropan-2-yl ((2R,6S,7R,9S,13aS,14aR,16aS,Z)-2-((7-isopropoxy-3-(trifluoromethyl)quinoxalin-2-yl)oxy)-7-(methoxymethyl)-9-methyl-14a-(((1-methylcyclopropyl)sulfonyl)carbamoyl)-5,16-dioxo-1,2,3,5,6,7,8,9,10,11,13a,14,14a,15,16,16a-hexadecahydrocyclopropa[e]pyrrolo[1,2-a][1,4]diazacyclopentadecin-6-yl)carbamate] | 5.01 to 35 |
| COC[C@@H]1C[C@H](C)CC/C=C\[C@@H]2C[C@@]2(C(=O)NS(=O)(=O)C2(C)CC2)NC(=O)[C@@H]2C[C@@H](Oc3nc4cc(OC(C)C)ccc4nc3C(F)(F)F)CN2C(=O)[C@H]1NC(=O)OC(C)(C)C(F)(F)F [Compound 1058, 1,1,1-trifluoro-2-methylpropan-2-yl ((2R,6S,7R,9R,13aS,14aR,16aS,Z)-2-((7-isopropoxy-3-(trifluoromethyl)quinoxalin-2-yl)oxy)-7-(methoxymethyl)-9-methyl-14a-(((1-methylcyclopropyl)sulfonyl)carbamoyl)-5,16-dioxo-1,2,3,5,6,7,8,9,10,11,13a,14,14a,15,16,16a-hexadecahydrocyclopropa[e]pyrrolo[1,2-a][1,4]diazacyclopentadecin-6-yl)carbamate] | 0.1 to 0.5 |
| COC[C@@H]1C[C@@H](C)CC/C=C\[C@@H]2C[C@@]2(C(=O)NS(=O)(=O)C2(C)CC2)NC(=O)[C@@H]2C[C@@H](Oc3nc(OC)c4c(OC)cccc4n3)CN2C(=O)[C@H]1NC(=O)OC(C)(C)C(F)(F)F [Compound 1059, 1,1,1-trifluoro-2-methylpropan-2-yl ((2R,6S,7R,9S,13aS,14aR,16aS,Z)-2-((4,5-dimethoxyquinazolin-2-yl)oxy)-7-(methoxymethyl)-9-methyl-14a-(((1-methylcyclopropyl)sulfonyl)carbamoyl)-5,16-dioxo-1,2,3,5,6,7,8,9,10,11,13a,14,14a,15,16,16a-hexadecahydrocyclopropa[e]pyrrolo[1,2-a][1,4]diazacyclopentadecin-6-yl)carbamate] | 35 to 620 |
| COC[C@@H]1C[C@H](C)CC/C=C\[C@@H]2C[C@@]2(C(=O)NS(=O)(=O)C2(C)CC2)NC(=O)[C@@H]2C[C@@H](Oc3nc(OC)c4c(OC)cccc4n3)CN2C(=O)[C@H]1NC(=O)OC(C)(C)C(F)(F)F [Compound 1060, 1,1,1-trifluoro-2-methylpropan-2-yl ((2R,6S,7R,9R,13aS,14aR,16aS,Z)-2-((4,5-dimethoxyquinazolin-2-yl)oxy)-7-(methoxymethyl)-9-methyl-14a-(((1-methylcyclopropyl)sulfonyl)carbamoyl)-5,16-dioxo-1,2,3,5,6,7,8,9,10,11,13a,14,14a,15,16,16a-hexadecahydrocyclopropa[e]pyrrolo[1,2-a][1,4]diazacyclopentadecin-6-yl)carbamate] | 1.01 to 5 |
| COC[C@@H]1C[C@H](C)CC/C=C\[C@@H]2C[C@@]2(C(=O)NS(=O)(=O)C2(C)CC2)NC(=O)[C@@H]2C[C@@H](Oc3nc(OC)c4c(OC)cccc4n3)CN2C(=O)[C@H]1NC(=O)OC(C)(C)C [Compound 1061, tert-butyl ((2R,6S,7R,9R,13aS,14aR,16aS,Z)-2-((4,5-dimethoxyquinazolin-2-yl)oxy)-7-(methoxymethyl)-9-methyl-14a-(((1-methylcyclopropyl)sulfonyl)carbamoyl)-5,16-dioxo-1,2,3,5,6,7,8,9,10,11,13a,14,14a,15,16,16a-hexadecahydrocyclopropa[e]pyrrolo[1,2-a][1,4]diazacyclopentadecin-6-yl)carbamate] | 5.01 to 35 |
| COC[C@@H]1C[C@H](C)CC/C=C\[C@@H]2C[C@@]2(C(=O)NS(=O)(=O)C2(C)CC2)NC(=O)[C@@H]2C[C@@H](Oc3nc(OC)c4c(OC)cccc4n3)CN2C(=O)[C@H]1NC(=O)OC(C)(C)C(C)(F)F [Compound 1062, 3,3-difluoro-2-methylbutan-2-yl ((2R,6S,7R,9R,13aS,14aR,16aS,Z)-2-((4,5-dimethoxyquinazolin-2-yl)oxy)-7-(methoxymethyl)-9-methyl-14a-(((1-methylcyclopropyl)sulfonyl)carbamoyl)-5,16-dioxo-1,2,3,5,6,7,8,9,10,11,13a,14,14a,15,16,16a-hexadecahydrocyclopropa[e]pyrrolo[1,2-a][1,4]diazacyclopentadecin-6-yl)carbamate] | 1.01 to 5 |
| CCOc1cnc(O[C@@H]2C[C@H]3C(=O)N[C@]4(C(=O)NS(=O)(=O)C5(C)CC5)C[C@H]4/C=C\CC[C@H](C)C[C@@H](COC)[C@H](NC(=O)OC(C)(C)C)C(=O)N3C2)c2ccc(OC)cc12 [Compound 1063, tert-butyl ((2R,6S,7R,9S,13aS,14aR,16aS,Z)-2-((4-ethoxy-6-methoxyisoquinolin-1-yl)oxy)-7-(methoxymethyl)-9-methyl-14a-(((1-methylcyclopropyl)sulfonyl)carbamoyl)-5,16-dioxo-1,2,3,5,6,7,8,9,10,11,13a,14,14a,15,16,16a-hexadecahydrocyclopropa[e]pyrrolo[1,2-a][1,4]diazacyclopentadecin-6-yl)carbamate] | 0.1 to 0.5 |
| CCOc1cnc(O[C@@H]2C[C@H]3C(=O)N[C@]4(C(=O)NS(=O)(=O)C5(C)CC5)C[C@H]4/C=C\CC[C@@H](C)C[C@@H](COC)[C@H](NC(=O)OC(C)(C)C)C(=O)N3C2)c2ccc(OC)cc12 [Compound 1064, tert-butyl ((2R,6S,7R,9R,13aS,14aR,16aS,Z)-2-((4-ethoxy-6-methoxyisoquinolin-1-yl)oxy)-7-(methoxymethyl)-9-methyl-14a-(((1-methylcyclopropyl)sulfonyl)carbamoyl)-5,16-dioxo-1,2,3,5,6,7,8,9,10,11,13a,14,14a,15,16,16a-hexadecahydrocyclopropa[e]pyrrolo[1,2-a][1,4]diazacyclopentadecin-6-yl)carbamate] | 0.1 to 0.5 |
| CCOc1cnc(O[C@@H]2C[C@H]3C(=O)N[C@]4(C(=O)NS(=O)(=O)C5(C)CC5)C[C@H]4/C=C\CC[C@H](C)C[C@@H](COC)[C@H](NC(=O)OC(C)(C)C(F)(F)F)C(=O)N3C2)c2ccc(OC)cc12 [Compound 1065, 1,1,1-trifluoro-2-methylpropan-2-yl ((2R,6S,7R,9S,13aS,14aR,16aS,Z)-2-((4-ethoxy-6-methoxyisoquinolin-1-yl)oxy)-7-(methoxymethyl)-9-methyl-14a-(((1-methylcyclopropyl)sulfonyl)carbamoyl)-5,16-dioxo-1,2,3,5,6,7,8,9,10,11,13a,14,14a,15,16,16a-hexadecahydrocyclopropa[e]pyrrolo[1,2-a][1,4]diazacyclopentadecin-6-yl)carbamate] | 0.1 to 0.5 |
